Assays:
[1] = test system: larvae of blowfly, Lucilia sericata; assay: whole plant or invertebrate; settings: dose rate of 20 ppm, Lucilia sericata larvae on treated filter paper with bovine serum; for % Mortality 24 h: assessed at 24 h; for % Mortality 48 h: assessed at 48 h
Description: Comparative Evaluation of the Efficacy of a 3-Aryl-4-hydroxyfuranone Compound Against Blowfly Larvae
In this evaluation, filter paper discs are treated with an acetone solution of test compound and allowed to dry. Bovine serum and newly emerged larvae of blowfly, Lucilia sericata, are added to the treated filter paper. Mortality is assessed at 24 h and 48 h. When more than one evaluation is performed, the data are averaged.

C. elegans = assay: Efficacy against nematodes (C. elegans motility rating); design: key: 0: no effect; 7: reduced movement in 24 h; 8: dead in 24 h; 9: dead in 4 h; settings: observations at 4 h and 24 h postimmersion
Description: Evaluation of the Efficacy of a 3-Aryl-4-Hydroxyfuranone Against Nematodes
In this evaluation, cultures of C. elegans are maintained on E. coli lawns on Nematode Growth Agar at 20° C. New cultures are established twice a week. Nematodes for testing are rinsed from plates using M9 Buffer. […] One μL of this solution is added to each well of a 96 well plate. A mixture of C. elegans in M9 Buffer (100 μL) is added to each well, such that approximately 50 worms of mixed stages (L1, L2, L3, L4 and adults) are present in each well at a final concentration of 100 ppm, 150 ppm or […] of test compound. Concentration of test compound may be varied by gradient dilution of the stock DMSO solution. Observations are made under a dissecting microscope at 4 h and 24 h postimmersion. A rating is based on the motility of the larvae and adults, using the rating system shown below.

| Compound | % Mortality 24 h [1] [%] | % Mortality 48 h [1] [%] | Rating (C. elegans; dose 150 ppm) | also measured |
| --- | --- | --- | --- | --- |
| O=C1OC(=Cc2ccc(-c3ccccc3CO)cc2)C(O)=C1c1ccccc1CO | 0 | 0 |  |  |
| O=C1O/C(=C\c2ccc(-c3cccc(CO)c3)cc2)C(O)=C1c1cccc(CO)c1 | 0 | 0 |  |  |
| CC(=O)Nc1cccc(C2=C(O)/C(=C/c3ccc(-c4cccc(NC(C)=O)c4)cc3)OC2=O)c1 | 0 | 0 |  |  |
| O=C1O/C(=C\c2ccc(N3CCN(c4ccccc4Cl)CC3)c(Cl)c2)C(O)=C1c1cc(Cl)cc(Cl)c1 | 0 | 0 |  |  |
| CCOC(=O)N1CCN(c2ccc(/C=C3\OC(=O)C(c4cc(Cl)cc(Cl)c4)=C3O)cc2F)CC1 | 0 | 0 |  |  |
| COc1cc(C=C2OC(=O)C(c3cc(Cl)cc(Cl)c3)=C2O)ccc1-c1cccc(C(F)(F)F)c1 | 0 | 0 |  |  |
| N#Cc1ccc(C2=C(O)/C(=C/c3ccc(-c4ccc(C#N)cc4)cc3)OC2=O)cc1 | 0 | 0 |  |  |
| CC(C)(C)c1ccc(-c2ccc(C3=C(O)C(=Cc4ccc(-c5ccccc5)cc4)OC3=O)cc2)cc1 | 0 | 0 |  |  |
| C=CCOC1=C(c2ccc(Cl)cc2)C(=O)OC1=Cc1ccc(C#N)cc1 (mixture of isomers) | 0 | 0 |  |  |
| N#Cc1ccc(-c2ccc(C=C3OC(=O)C(c4cccc(C(F)(F)F)c4)=C3O)cc2)cc1 (mixture of isomers) | 0 | 0 |  |  |
| O=C1OC(=Cc2ccc(-c3ccc(Cl)cc3)cc2)C(O)=C1c1cccc(C(F)(F)F)c1 (mixture of isomers) | 0 | 0 |  |  |
| N#Cc1cccc(C2=C(O)C(=Cc3ccc(-c4ccc(Cl)cc4)cc3)OC2=O)c1 (mixture of isomers) | 0 | 0 |  |  |
| N#Cc1ccc(-c2ccc(C=C3OC(=O)C(c4cccc(Cl)c4)=C3O)cc2)cc1 (mixture of isomers) | 0 | 0 |  |  |
| O=C1OC(=Cc2ccc(-c3ccc(Cl)cc3)cc2)C(O)=C1c1cccc(Cl)c1 (mixture of isomers) | 0 | 0 |  |  |
| N#Cc1ccc(-c2ccc(C=C3OC(=O)C(c4ccc(C(F)(F)F)cc4)=C3O)cc2)cc1 (mixture of isomers) | 0 | 0 |  |  |
| O=C1OC(=Cc2ccc(-c3ccc(Cl)cc3)cc2)C(O)=C1c1ccc(C(F)(F)F)cc1 (mixture of isomers) | 0 | 65 |  |  |
| N#Cc1ccc(C2=C(O)C(=Cc3ccc(-c4ccc(C(F)(F)F)cc4)cc3)OC2=O)cc1 (mixture of isomers) | 0 | 25 |  |  |
| N#Cc1ccc(C2=C(O)C(=Cc3ccc(-c4ccc(Cl)cc4)cc3)OC2=O)cc1 (mixture of isomers) | 0 | 100 |  |  |
| O=C1OC(=Cc2ccc(-c3ccc(C(F)(F)F)cc3)cc2)C(O)=C1c1ccc(Cl)cc1 (mixture of isomers) | 0 | 0 |  |  |
| N#Cc1ccc(-c2ccc(C=C3OC(=O)C(c4ccc(F)cc4)=C3O)cc2)cc1 (mixture of isomers) | 0 | 0 |  |  |
| O=C1OC(=Cc2ccc(-c3ccc(Cl)cc3)cc2)C(O)=C1c1ccc(F)cc1 (mixture of isomers) | 0 | 0 |  |  |
| O=C1OC(=Cc2ccc(C(F)(F)F)cc2)C(O)=C1c1ccc(-c2ccc(Cl)cc2)cc1 (mixture of isomers) | 0 | 0 |  |  |
| N#Cc1ccc(C=C2OC(=O)C(c3ccc(-c4ccc(Cl)cc4)cc3)=C2O)cc1 (mixture of isomers) | 0 | 0 |  |  |
| O=C1OC(=Cc2ccc(Cl)cc2)C(O)=C1c1ccc(-c2ccc(Cl)cc2)cc1 (mixture of isomers) | 0 | 0 |  |  |
| O=C1O/C(=C\c2cc(F)cc(C(F)(F)F)c2)C(O)=C1c1cccc(-c2ccccc2)c1 [R=H; R1=3-biphenyl; R2=3-F-5-CF3—C6H3] |  |  |  | Rating (C. elegans; dose 200 μM): 9 |

| Compound | % Mortality 24 h [1] [%] | % Mortality 48 h [1] [%] | Rating (C. elegans; dose 150 ppm) | also measured |
| --- | --- | --- | --- | --- |
| CC(=NO)c1ccc(C2=C(O)C(=Cc3cccc4ccccc34)OC2=O)cc1 [R=H; R1=4-(CH3C═NOH)—C6H4; R2=1-naphthyl] |  |  | 7 |  |
| O=C1O/C(=C\c2cccc3ccccc23)C(O)=C1c1ccc(C(F)(F)F)cc1 [R=H; R1=4-CF3—C6H4; R2=1-naphthyl] |  |  | 9 |  |
| Cc1ccc(C2=C(O)/C(=C/c3cccc(C(F)(F)F)c3Cl)OC2=O)cc1 [R=H; R1=4-CH3—C6H4; R2=2-Cl-3-CF3—C6H3] |  |  |  | Rating (C. elegans; dose 200 μM): 9 |
| Cc1ccc(C2=C(O)/C(=C/c3cc(C(F)(F)F)ccc3Cl)OC2=O)cc1 [R=H; R1=4-CH3—C6H4; R2=2-Cl-5-CF3—C6H3] |  |  |  | Rating (C. elegans; dose 200 μM): 0 |
| N#Cc1ccc(/C=C2\OC(=O)C(c3ccc(C#N)cc3)=C2O)cc1 [R=H; R1=4-CN—C6H4**; R2=4-CN—C6H4] |  |  | 9 |  |
| N#Cc1ccc(C2=C(O)C(=Cc3ccc(Cl)cc3)OC2=O)cc1 [R=H; R1=4-CN—C6H4**; R2=4-Cl—C6H4] |  |  | 9 |  |
| N#Cc1ccc(C2=C(O)C(=Cc3ccc(-c4ccc(C#N)cc4)cc3)OC2=O)cc1 [R=H; R1=4-CN—C6H4; R2=4-(4′-CN-biphenyl)] |  |  | 8 |  |
| COC(=O)c1ccc(C2=C(O)/C(=C/c3cccc4ccccc34)OC2=O)cc1 [R=H; R1=4-CO2CH3—C6H4; R2=1-naphthyl] |  |  | 9 |  |
| CC(=O)c1ccc(C2=C(O)C(=Cc3ccccc3C(F)(F)F)OC2=O)cc1 [R=H; R1=4-COCH3—C6H4; R2=2-CF3—C6H4] |  |  | 0 |  |
| O=C1O/C(=C\c2ccccc2-c2ccc(Cl)cc2)C(O)=C1c1ccc(Cl)cc1 [R=H; R1=4-Cl—C6H4; R2=2-(4′-Cl-biphenyl)] |  |  | 0 |  |
| O=C1O/C(=C\c2cccc(C(F)(F)F)c2)C(O)=C1c1ccc(Cl)cc1 [R=H; R1=4-Cl—C6H4; R2=3-CF3—C6H4] |  |  | 9 |  |
| O=C1OC(=Cc2ccccc2C(F)(F)F)C(O)=C1c1ccc(F)cc1 [R=H; R1=4-F—C6H4; R2=2-CF3—C6H4] |  |  | 0 |  |
| COc1ccc(C2=C(O)/C(=C/c3ccc4ccccc4c3)OC2=O)cc1 [R=H; R1=4-OCH3—C6H4; R2=2-naphthyl] |  |  | 0 |  |
| COc1ccc(C2=C(O)/C(=C/c3ccc(Cl)cc3)OC2=O)cc1 [R=H; R1=4-OCH3—C6H4; R2=4-Cl—C6H4] |  |  | 0 |  |
| COc1ccc(/C=C2\OC(=O)C(c3ccc(OC)cc3)=C2O)cc1 [R=H; R1=4-OCH3—C6H4; R2=4-OCH3—C6H4] |  |  | 0 |  |
| O=C1OC(=Cc2cc(C(F)(F)F)ccc2Cl)C(O)=C1c1ccc(-c2ccccc2)cc1 [R=H; R1=4-biphenyl; R2=2-Cl-5-CF3—C6H3] |  |  |  | Rating (C. elegans; dose 200 μM): 9 |
| O=C1O/C(=C\c2ccc3ccccc3c2)C(O)=C1c1ccc(-c2ccccc2)cc1 [R=H; R1=4-biphenyl; R2=2-naphthyl] |  |  | 0 |  |
| O=C1OC(=Cc2cccc(C(F)(F)F)c2)C(O)=C1c1ccc(-c2ccccc2)cc1 [R=H; R1=4-biphenyl; R2=3-CF3—C6H4] |  |  |  | Rating (C. elegans; dose 200 μM): 9 |
| O=C1OC(=Cc2cc(F)cc(C(F)(F)F)c2)C(O)=C1c1ccc(-c2ccccc2)cc1 [R=H; R1=4-biphenyl; R2=3-F-5-CF3—C6H3] |  |  |  | Rating (C. elegans; dose 200 μM): 9 |
| O=C1O/C(=C\c2ccc(-c3ccccc3)cc2)C(O)=C1c1ccc(-c2ccccc2)cc1 [R=H; R1=4-biphenyl; R2=4-biphenyl] |  |  | 9 |  |
| O=C1O/C(=C\c2cccc(C(F)(F)F)c2)C(O)=C1c1ccccc1 [R=H; R1=C6H5; R2=3-CF3—C6H4] |  |  | 0 |  |
| O=C1OC(=Cc2ccc(C(F)(F)F)cc2)C(O)=C1c1cccs1 [R=H; R1=thiophen-2-yl; R2=4-CF3—C6H4] |  |  |  | Rating (C. elegans; dose 100 ppm): 7 |
| N#Cc1ccc(C=C2OC(=O)C(c3cccs3)=C2O)cc1 [R=H; R1=thiophen-2-yl; R2=4-CN—C6H4] |  |  |  | Rating (C. elegans; dose 100 ppm): 0 |
| O=C1O/C(=C\c2ccc(Cl)cc2)C(O)=C1c1cccs1 [R=H; R1=thiophen-2-yl; R2=4-Cl—C6H4] |  |  |  | Rating (C. elegans; dose 100 ppm): 7 |
